Values of other authors as cited in PMC8066102, “Metabolic Profiles of New Unsymmetrical Bisacridine Antitumor Agents in Electrochemical and Enzymatic Noncellular Systems and in Tumor Cells” (Pharmaceuticals, 2021).

Set-up: method as in PMID 2810109, PMID 12920162
Settings: after UGT2B7 glucuronidation; cited from earlier work

CN1CC[C@]23c4c5ccc(O)c4O[C@H]2[C@@H](O[C@@H]2O[C@H](C(=O)O)[C@@H](O)[C@H](O)[C@H]2O)C=C[C@H]3[C@H]1C5 [morphine-6-glucuronide]
analgesic activity relative to morphine: 650 fold
